Source: US7067494B2, “Antimitotic eleuthesides” (The University of British Columbia, priority 2001, dated 2006)

Each molecule was assayed on cells which regularly divide in culture (e.g. cancer cells) (assay: cell based antimitotic (mitotic arrest) assay using antibodies specific for mitotic cells). Settings: cell based mitotic assay.
Excerpt: Methods suitable for assaying antimitotic activity of compounds of this invention or compounds used as precursors, may be based on the use of antibodies specific for mitotic cells, such as those described in the international patent application published Apr. 1, 1999 under WO 99/15157 or the assay described in WO 01/38339. Such an assay will typically employ cells which regularly divide in culture (e.g. cancer cells). A known antimitotic compound such as nocodazole may be used as a control. In the assay, determination of the cells which proceed to mitosis is carried out using any of the known immunological methods by employing antibodies which have specificity for mitotic cells. […] Other examples are the monoclonal antibodies recognizing phospho-epitopes in the paired helical filament proteins (PHF) found in brain tissue of patients suffering from Alzheiner's disease as described in: PCT International Application published Jul. 4, 1996 under No. WO 96/20218; and, Vincent et al. (1996) “The Journal of Cell Biology”, 132:413–425. TG-3 antibody described in the latter two references may be obtained from Albert Einstein College of Medicine of Yeshiva University, Bronx, N.Y. This antibody is highly specific for mitotic cells and functions in ELISA.
Immunological methods useful for determination of mitotic cells in an assay include any method for determining antibody-antigen binding, including: immunocytochemistry (e.g. immunofluorescence), flow cytometry, immunoblotting, and ELISA, including those described in Vincent, I. et al. [supra]. High throughput testing of samples may be readily achieved by use of the ELISA or the ELICA assays described in WO 01/38339.
CCO[C@]12C=C[C@](C)(O1)[C@@H](OC(=O)/C=C/c1cn(C)cn1)C[C@H]1C(CO)=CC[C@H](C(C)C)[C@H]1/C=C\2COC1OCC(O)C(O)C1OC(C)=O (stereo partly drawn) [Compound 7, 17-hydroxyeleutheside] gave an IC50 of 20 nM.
CO[C@]12C=C[C@](C)(O1)[C@@H](OC(=O)/C=C/c1cn(C)cn1)C[C@H]1C(C)=CC[C@H](C(C)C)[C@H]1/C=C\2COC1OCC(O)C(O)C1OC(C)=O (stereo partly drawn) [eleutherobin, reference compound] was tested, and the IC50 was 20 nM.
2′3′-dihdro-eleutherobin [Compound 10] gave an IC50 of 20000 nM.
CO[C@]12CC[C@](C)(O1)[C@@H](OC(=O)CCc1cn(C)cn1)C[C@@H]1[C@H](/C=C\2COC2OCC(O)C(O)C2OC(C)=O)[C@@H](C(C)C)CC[C@@H]1C (stereo partly drawn) [Compound 8, hexahydroeleutherobin] showed an IC50 greater than 10000 nM.
In the case of “5,6,11β,12-tetrahydro eleutherobin [Compound 9]”, the IC50 is reported as 200 nM.

Same assay, conditions: compared with eleutherobin
CO[C@]12CC[C@](C)(O1)[C@@H](OC(=O)CCc1cn(C)cn1)C[C@@H]1[C@H](/C=C\2COC2OCC(O)C(O)C2OC(C)=O)[C@@H](C(C)C)CC[C@@H]1C (stereo partly drawn) [Compound 8, hexahydroeleutherobin] was tested, and the “antimitotic activity relative to eleutherobin (fold less active)” value was “more than five thousand fold less active than eleutherobin”.
